Data on 21 compounds can be found in US11787785B2 (NOVARTIS AG, priority 2021, dated 2023).

Where only a bound is given, the exact number is not on record here.

For this test, the target named is T1, WIZ protein (HiBit-WIZ fusion protein) (Homo sapiens, UniProt O95785+Q96SW2).
T1 construct: expressed in transfected cells
Description: Quantification of WIZ protein levels in HiBit tag fusion protein assay (WIZ HiBit assay in 293T cells). The format is cell-based. Particulars: for Dmax at 25 µM / remaining activity at 25 µM: HEK-293T, 293T cells; for Dmax at 25 µM: 100 − Amax, read-out: % degradation of WIZ (100 − Amax); for remaining activity at 25 µM: DMSO-normalized, curve-fitted percentage of WIZ-HiBit remaining at 25 uM, read-out: WIZ Amax; for DC50: WIZ HiBit assay in 293T cells, 10-point, 5-fold dose response, highest concentration 25 μM, about 18 hours, read-out: WIZ AC50. The method, then:
The HiBit system from Promega was used to develop high-throughput and quantitative assays to measure changes in WIZ protein levels in response to compounds. The HiBit tag was derived from a split Nanoluciferase and has the following protein sequence: […] (SEQ ID NO: 1). The complementary fragment of Nanoluciferase (known as LgBit, from Promega), was added to the HiBit tag to form an active Nanoluciferase enzyme whose activity can be precisely measured. In this way, the levels of a fusion protein with the HiBit tag can be quantified in cell lysates.
Lentiviral vectors, based on the Invitrogen™ pLenti6.2/V5 DEST backbone were constructed that places the HiBit tag upstream of WIZ and expressed the fusion protein from an HSVTK promotor.
To ensure moderate and consistent expression of the HiBit-WIZ fusion protein across all cells in the population, stable cell lines were constructed from cells harboring a single copy of the construct. Lentivirus packaged with the constructs were made using the ViraPower™ kit from Invitrogen™. 293T cells from ATCC (Catalog number: CRL-3216), were infected with the virus at low multiplicity of infection and selected by 5 μg/mL blasticidin in culture media for 2 weeks.
The levels of HiBit-WIZ tagged fusion proteins in compound-treated cell lines were measured as follows:
On day 1, cells were diluted to 1.0×10^6 cells/ml in normal growth medium. 20 μL of cell suspension were plated in each well of a solid white 384-well plate. Plates were incubated overnight in a 37° C. and 5% CO2 humidified tissue culture incubator.
On day 2, serial dilutions of compounds were made in 384-well plates. Compound plates were set up with DMSO in columns 1, 2, 23, 24, and 10-point compound dilution series in column 3-12 and column 13-22. 10 mM stock solution of compound were placed into column 3 or 13 and a 1:5 serial dilution was carried out until there was a 10-point dilution series per compound. 50 nL of diluted compounds were transferred into the plated cells by Echo® (Labcyte) acoustic transfer. The highest concentration of compound was 25 μM. Plates were incubated overnight (about 18 hours) in a 37° C. and 5% CO2 humidified tissue culture incubator.
On day 3, plates were removed from the incubator and allowed to equilibrate at room temperature for 60 minutes. HiBit substrate (Nano-Glo® HiBit Lytic Detection System, Promega Catalogue number: N3050) was added as described by the manufacturers protocols. Plates were incubated at room temperature for 30 minutes and luminescence was read using an EnVision® reader (PerkinElmer®). Data was analyzed and visualized using the Spotfire® software package.
WIZ Degradation Activity of Compounds (Table 1)
WIZ Amax reflects the DMSO-normalized, curve-fitted percentage of WIZ-HiBit remaining at 25 uM. It was calculated by normalizing […] controls to 100%, parametric curve fitting of the dose response data (10-point, 5-fold), followed by calculation of response at 25 uM using the fitted equation (nd=not determined).
For orientation: The HiBiT peptide binds its large partner to form an active luciferase.

T1 sequence (O95785 whole entry, the tested form may be a part): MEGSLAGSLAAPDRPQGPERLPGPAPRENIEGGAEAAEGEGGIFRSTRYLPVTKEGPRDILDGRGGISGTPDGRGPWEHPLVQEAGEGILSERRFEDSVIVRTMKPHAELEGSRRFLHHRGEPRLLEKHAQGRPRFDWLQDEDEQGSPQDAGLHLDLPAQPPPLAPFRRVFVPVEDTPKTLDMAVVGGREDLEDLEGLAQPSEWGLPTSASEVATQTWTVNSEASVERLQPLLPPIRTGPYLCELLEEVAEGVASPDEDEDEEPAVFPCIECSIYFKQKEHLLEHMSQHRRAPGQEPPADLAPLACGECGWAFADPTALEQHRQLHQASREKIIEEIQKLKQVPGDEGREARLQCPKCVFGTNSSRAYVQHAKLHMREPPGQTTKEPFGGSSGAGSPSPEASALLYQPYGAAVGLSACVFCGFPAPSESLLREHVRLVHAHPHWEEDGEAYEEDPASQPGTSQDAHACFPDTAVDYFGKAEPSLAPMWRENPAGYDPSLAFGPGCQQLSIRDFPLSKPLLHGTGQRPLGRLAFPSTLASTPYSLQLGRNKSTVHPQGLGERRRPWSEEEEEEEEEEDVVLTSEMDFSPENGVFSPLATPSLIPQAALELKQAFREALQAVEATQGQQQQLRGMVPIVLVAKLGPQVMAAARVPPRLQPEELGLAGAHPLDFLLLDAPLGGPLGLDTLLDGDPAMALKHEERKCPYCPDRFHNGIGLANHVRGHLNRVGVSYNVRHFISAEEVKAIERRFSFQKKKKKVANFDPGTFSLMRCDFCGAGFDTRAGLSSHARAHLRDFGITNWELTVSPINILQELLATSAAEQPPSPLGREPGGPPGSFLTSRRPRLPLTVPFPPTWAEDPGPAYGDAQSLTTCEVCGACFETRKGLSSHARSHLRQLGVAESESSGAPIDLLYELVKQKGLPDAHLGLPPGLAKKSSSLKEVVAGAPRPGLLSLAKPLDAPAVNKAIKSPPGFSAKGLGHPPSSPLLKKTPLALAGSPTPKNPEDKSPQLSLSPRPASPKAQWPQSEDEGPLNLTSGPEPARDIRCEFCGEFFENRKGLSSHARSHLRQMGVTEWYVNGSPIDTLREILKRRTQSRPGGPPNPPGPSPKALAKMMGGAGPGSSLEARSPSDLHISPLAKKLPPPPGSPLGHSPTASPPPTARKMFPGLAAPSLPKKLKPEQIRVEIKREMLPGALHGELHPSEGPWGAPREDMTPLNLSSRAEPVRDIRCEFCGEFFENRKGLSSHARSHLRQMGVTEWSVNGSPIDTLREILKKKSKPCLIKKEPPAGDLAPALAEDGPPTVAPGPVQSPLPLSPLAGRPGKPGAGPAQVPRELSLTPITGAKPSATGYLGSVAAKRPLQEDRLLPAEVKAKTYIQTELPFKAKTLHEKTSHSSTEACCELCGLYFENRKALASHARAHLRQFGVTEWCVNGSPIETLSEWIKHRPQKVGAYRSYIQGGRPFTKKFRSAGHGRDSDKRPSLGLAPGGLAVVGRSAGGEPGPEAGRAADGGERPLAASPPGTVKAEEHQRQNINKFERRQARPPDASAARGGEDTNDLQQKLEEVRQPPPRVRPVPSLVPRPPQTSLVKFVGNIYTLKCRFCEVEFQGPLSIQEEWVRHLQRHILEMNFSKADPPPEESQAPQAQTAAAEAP
T1 sequence (Q96SW2 whole entry, the tested form may be a part): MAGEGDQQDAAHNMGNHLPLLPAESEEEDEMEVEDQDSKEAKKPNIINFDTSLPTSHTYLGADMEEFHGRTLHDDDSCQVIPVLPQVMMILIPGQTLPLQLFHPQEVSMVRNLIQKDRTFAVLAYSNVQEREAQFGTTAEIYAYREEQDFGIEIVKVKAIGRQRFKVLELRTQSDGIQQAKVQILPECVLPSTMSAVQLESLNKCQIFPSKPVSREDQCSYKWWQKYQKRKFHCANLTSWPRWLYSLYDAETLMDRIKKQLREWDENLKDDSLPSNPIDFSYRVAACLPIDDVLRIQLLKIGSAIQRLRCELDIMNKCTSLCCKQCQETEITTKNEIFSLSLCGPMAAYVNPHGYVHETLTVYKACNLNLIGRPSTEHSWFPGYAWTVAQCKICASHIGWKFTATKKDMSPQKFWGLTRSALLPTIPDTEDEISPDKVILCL
T1 sequence (Q16531 whole entry partner, the tested form may be a part): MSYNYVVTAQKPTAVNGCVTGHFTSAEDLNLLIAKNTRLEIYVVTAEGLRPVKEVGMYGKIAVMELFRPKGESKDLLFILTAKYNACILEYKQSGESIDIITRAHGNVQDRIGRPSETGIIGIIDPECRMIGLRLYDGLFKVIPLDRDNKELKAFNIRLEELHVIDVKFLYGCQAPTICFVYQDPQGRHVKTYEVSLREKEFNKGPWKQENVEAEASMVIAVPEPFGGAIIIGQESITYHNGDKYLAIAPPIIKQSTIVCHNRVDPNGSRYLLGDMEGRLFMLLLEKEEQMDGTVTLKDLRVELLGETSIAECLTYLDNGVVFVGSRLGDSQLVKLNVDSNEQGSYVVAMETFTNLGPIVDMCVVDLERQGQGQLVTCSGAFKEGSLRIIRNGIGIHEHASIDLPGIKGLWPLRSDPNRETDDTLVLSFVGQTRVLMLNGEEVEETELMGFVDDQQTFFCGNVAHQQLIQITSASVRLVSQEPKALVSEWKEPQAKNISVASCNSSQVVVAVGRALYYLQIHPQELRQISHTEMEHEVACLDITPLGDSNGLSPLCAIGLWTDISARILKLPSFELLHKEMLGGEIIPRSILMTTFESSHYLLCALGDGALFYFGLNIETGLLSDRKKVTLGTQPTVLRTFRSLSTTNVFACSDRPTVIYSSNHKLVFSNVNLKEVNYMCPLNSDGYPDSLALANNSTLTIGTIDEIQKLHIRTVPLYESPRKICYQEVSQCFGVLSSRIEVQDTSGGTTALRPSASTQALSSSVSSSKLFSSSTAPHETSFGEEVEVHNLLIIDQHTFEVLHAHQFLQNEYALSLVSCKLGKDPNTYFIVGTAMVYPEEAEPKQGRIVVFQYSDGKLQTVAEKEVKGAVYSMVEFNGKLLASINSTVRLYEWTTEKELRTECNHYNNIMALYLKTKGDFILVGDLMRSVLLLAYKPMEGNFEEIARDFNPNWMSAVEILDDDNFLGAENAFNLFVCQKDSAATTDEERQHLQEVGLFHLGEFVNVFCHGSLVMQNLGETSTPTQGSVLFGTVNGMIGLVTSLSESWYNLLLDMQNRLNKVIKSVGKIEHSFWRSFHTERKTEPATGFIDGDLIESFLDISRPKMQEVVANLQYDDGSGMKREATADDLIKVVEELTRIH

Consider `CC(C)C(C)N1CCN(Cc2ccn3ncc(N4CCC(=O)NC4=O)c3c2)CC1` (stereo not drawn) [Example 240, 1-(5-((4-(3-methylbutan-2-yl)piperazin-1-yl)methyl)pyrazolo[1,5-a]pyridin-3-yl)dihydropyrimidine-2,4(1H,3H)-dione], for which the Dmax at 25 µM came to 80%, the remaining activity at 25 µM came to 20% and the DC50 turned out to be 25 nM.

For `CC(C)CN1CCN(Cc2ccn3ncc(N4CCC(=O)NC4=O)c3c2)C[C@@H]1C(C)C` [Example 229, (S)-1-(5-((4-isobutyl-3-isopropylpiperazin-1-yl)methyl)pyrazolo[1,5-a]pyridin-3-yl)dihydropyrimidine-2,4(1H,3H)-dione], the Dmax at 25 µM was 0%, the remaining activity at 25 µM came to 100% and the DC50 is > 25000 nM.

In the case of `Cn1cnc(CN2CCC(Cc3ccn4ncc(N5CCC(=O)NC5=O)c4c3)CC2)c1` [Example 116], the Dmax at 25 µM came to 39%, the remaining activity at 25 µM was 61% and the DC50 is 1700 nM.

Regarding `C[C@H]1CN(Cc2ccn3ncc(N4CCC(=O)NC4=O)c3c2)CCN1CC1CC2(C1)CC(F)(F)C2` [Example 326, (S)-1-(5-((4-((6,6-difluorospiro[3.3]heptan-2-yl)methyl)-3-methylpiperazin-1-yl)methyl)pyrazolo[1,5-a]pyridin-3-yl)dihydropyrimidine-2,4(1H,3H)-dione], the Dmax at 25 µM worked out at 87%, the remaining activity at 25 µM was 13% and the DC50 is 49 nM.

On to `C[C@H]1CN(Cc2ccn3ncc(N4CCC(=O)NC4=O)c3c2)CCN1CC1CCC(C)(C)CC1` [Example 200, (S)-1-(5-((4-((4,4-dimethylcyclohexyl)methyl)-3-methylpiperazin-1-yl)methyl)pyrazolo[1,5-a]pyridin-3-yl)dihydropyrimidine-2,4(1H,3H)-dione], for which the Dmax at 25 µM was found to be 90%, the remaining activity at 25 µM was determined as 10% and the DC50 was 8 nM.

In the case of `Cc1ccc(F)cc1CN1CCC(Cc2ccn3ncc(N4CCC(=O)NC4=O)c3c2)CC1` [Example 58, 1-(5-((1-(5-fluoro-2-methylbenzyl)piperidin-4-yl)methyl)pyrazolo[1,5-a]pyridin-3-yl)dihydropyrimidine-2,4(1H,3H)-dione], the Dmax at 25 µM turned out to be 63%, the remaining activity at 25 µM was 37% and the DC50 is 33 nM.

`O=C1CCN(c2cnn3ccc(CC4CCN(CC5CC5)CC4)cc23)C(=O)N1` [Example 5, 1-(5-((1-(cyclopropylmethyl)piperidin-4-yl)methyl)pyrazolo[1,5-a]pyridin-3-yl)dihydropyrimidine-2,4(1H,3H)-dione]: the Dmax at 25 µM was 89%, the remaining activity at 25 µM came to 11% and the DC50 stood at 204 nM.

Consider `Cc1cn(-c2cnn3ccc(CN4CCN(CC5CC5)[C@@H](C)C4)cc23)c(=O)[nH]c1=O` [Example 362, (S)-1-(5-((4-(cyclopropylmethyl)-3-methylpiperazin-1-yl)methyl)pyrazolo[1,5-a]pyridin-3-yl)-5-methylpyrimidine-2,4(1H,3H)-dione], for which the Dmax at 25 µM stood at 84%, the remaining activity at 25 µM is 16% and the DC50 turned out to be 765 nM.

For the compound `Cc1ccc(CN2CCC(Cc3ccn4ncc(N5CCC(=O)NC5=O)c4c3)CC2)cn1` [Example 46, 1-(5-((1-((6-methylpyridin-3-yl)methyl)piperidin-4-yl)methyl)pyrazolo[1,5-a]pyridin-3-yl)dihydropyrimidine-2,4(1H,3H)-dione], the Dmax at 25 µM came out at 69%, the remaining activity at 25 µM is 31% and the DC50 was found to be 58 nM.

For `C[C@H]1C[C@H](Cc2ccn3ncc(-n4cc(F)c(=O)[nH]c4=O)c3c2)CCN1CC1CCC(F)(F)CC1` [Example 350, 1-(5-(((2S,4R)-1-((4,4-difluorocyclohexyl)methyl)-2-methylpiperidin-4-yl)methyl)pyrazolo[1,5-a]pyridin-3-yl)-5-fluoropyrimidine-2,4(1H,3H)-dione], the Dmax at 25 µM was 90%, the remaining activity at 25 µM stood at 10% and the DC50 is 28 nM.

On to `Cn1nccc1CN1CCN(Cc2ccn3ncc(N4CCC(=O)NC4=O)c3c2)CC1` [Example 195, 1-(5-((4-((1-methyl-1H-pyrazol-5-yl)methyl)piperazin-1-yl)methyl)pyrazolo[1,5-a]pyridin-3-yl)dihydropyrimidine-2,4(1H,3H)-dione], for which the Dmax at 25 µM amounted to 48%, the remaining activity at 25 µM was 52% and the DC50 is 2050 nM.

In the case of `O=C1CCN(c2cnn3ccc(CC4CCN(CC(F)(F)F)CC4)cc23)C(=O)N1` [Example 30, 1-(5-((1-(2,2,2-trifluoroethyl)piperidin-4-yl)methyl)pyrazolo[1,5-a]pyridin-3-yl)dihydropyrimidine-2,4(1H,3H)-dione], the Dmax at 25 µM came out at 80%, the remaining activity at 25 µM was determined as 20% and the DC50 is 201 nM.

In the case of `O=C1CCN(c2cnn3ccc(CC4CCN(S(=O)(=O)Cc5ccccc5)CC4)cc23)C(=O)N1` [Example 88], the Dmax at 25 µM stood at 78%, the remaining activity at 25 µM turned out to be 22% and the DC50 was 181 nM.

For the compound `O=C1CCN(c2cnn3ccc(CC4CCCNCC4)cc23)C(=O)N1` (stereo not drawn) [Example 269, 1-(5-(azepan-4-ylmethyl)pyrazolo[1,5-a]pyridin-3-yl)dihydropyrimidine-2,4(1H,3H)-dione], the Dmax at 25 µM was 49%, the remaining activity at 25 µM worked out at 51% and the DC50 was 1020 nM.

For the compound `O=C1CCN(c2cnn3ccc(CN4CCN(CC5CCCCC5)CC4=O)cc23)C(=O)N1` [Example 255, 1-(5-((4-(cyclohexylmethyl)-2-oxopiperazin-1-yl)methyl)pyrazolo[1,5-a]pyridin-3-yl)dihydropyrimidine-2,4(1H,3H)-dione], the Dmax at 25 µM stood at 0%, the remaining activity at 25 µM came out at 100% and the DC50 was > 25000 nM.

`O=C1CCN(c2cnn3ccc(CN4CCN(CCc5ccccc5)CC4)cc23)C(=O)N1` [Example 178]: the Dmax at 25 µM is 76%, the remaining activity at 25 µM came out at 24% and the DC50 is 48 nM.

On to `O=C1CCN(c2cnn3ccc(CN4C[C@H]5CC[C@@H](C4)N5Cc4cccc(F)c4)cc23)C(=O)N1` [Example 251, 1-(5-(((1R,5S)-8-(3-fluorobenzyl)-3,8-diazabicyclo[3.2.1]octan-3-yl)methyl)pyrazolo[1,5-a]pyridin-3-yl)dihydropyrimidine-2,4(1H,3H)-dione], for which the Dmax at 25 µM was determined as 18%, the remaining activity at 25 µM is 82% and the DC50 came to 165 nM.

`CC(c1cccnc1)N1CCN(Cc2ccn3ncc(N4CCC(=O)NC4=O)c3c2)CC1` (stereo not drawn) [Example 175]: the Dmax at 25 µM was 40%, the remaining activity at 25 µM is 60% and the DC50 came to 1240 nM.

For `O=C1CCN(c2cnn3ccc(CN4CCN5CCCC[C@H]5C4)cc23)C(=O)N1` [Example 262, (S)-1-(5-((octahydro-2H-pyrido[1,2-a]pyrazin-2-yl)methyl)pyrazolo[1,5-a]pyridin-3-yl)dihydropyrimidine-2,4(1H,3H)-dione], the Dmax at 25 µM is 68%, the remaining activity at 25 µM was determined as 32% and the DC50 amounted to 583 nM.

For the compound `C=C(C)CN1CCC(Cc2ccn3ncc(N4CCC(=O)NC4=O)c3c2)CC1` [Example 39a, 1-(5-((1-(2-methylallyl)piperidin-4-yl)methyl)pyrazolo[1,5-a]pyridin-3-yl)dihydropyrimidine-2,4(1H,3H)-dione], the Dmax at 25 µM stood at 68%, the remaining activity at 25 µM is 32% and the DC50 is 87 nM.

As for `CC[C@H]1CN(Cc2ccn3ncc(N4CCC(=O)NC4=O)c3c2)CCN1CC(C)C` [Example 228, (S)-1-(5-((3-ethyl-4-isobutylpiperazin-1-yl)methyl)pyrazolo[1,5-a]pyridin-3-yl)dihydropyrimidine-2,4(1H,3H)-dione], the Dmax at 25 µM was 55%, the remaining activity at 25 µM came out at 45% and the DC50 was 704 nM.
